Experimental data from the METLIN SMRT retention time set (Domingo-Almenara et al. 2019).

test: gradient 5% acetonitrile 3 min, to 50% in 2 min, to 85% in 15 min, held 3 min, 100 µL/min; details: column: Zorbax Extend-C18 2.1 x 50 mm; eluents: water / acetonitrile, 0.1% formic acid
In short: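 A Zorbax Extend-C18 column (2.1 × 50 mm, 1.8 μm) run at 100 μL/min with water and acetonitrile, both containing 0.1% formic acid, separated mixtures of ~100 pure standards. The HPLC was coupled to a quadrupole time-of-flight mass spectrometer operated in positive and negative ionization mode, with dead and dwell volumes of 40 μL and 900 μL. Each retention time was taken from a computationally picked adduct peak that was then manually inspected.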

Row | RP-LC retention time [s] | SMILES
1 | 732 | O=C(NC1CCCCCCC1)C1CC(=O)N(CCc2c[nH]c3ccc(Cl)cc23)C1 (centres undefined)
2 | 619 | Cc1oc(C2CCN(C(=O)Cn3cnc4c3c(=O)n(C)c(=O)n4C)CC2)nc1C(=O)N1CCCC1
3 | 694 | CC1CN(C(=O)CCC(=O)NC2CCN(Cc3ccccc3)CC2)c2cc(Cl)ccc2O1 (centres undefined)
4 | 745 | CCOC(=O)CNC(=O)N1CCCC1c1cccc(F)c1 (centres undefined)
5 | 843 | CSc1cccc(NC(=O)N2CCC(CC(=O)NCc3cccc(F)c3)CC2)c1
6 | 709 | Cc1nc(-c2cnccn2)n(CC(=O)Nc2ccc(F)cc2)c(=O)c1C
7 | 636 | c1ccc(-c2nc(CSc3ccc(-n4ccnc4)nn3)cs2)cc1
8 | 589 | O=C(Cn1cnc2nc(N3CCC(C(=O)NC4CC4)CC3)sc2c1=O)NCC1CCCO1 (centres undefined)
9 | 1120 | Cc1ccccc1Nc1c(-c2cc(Br)ccc2F)nc2ccc(Br)cn12
10 | 834 | CC(C)C(=O)NC(C)c1nc(-c2ccccc2Cl)no1 (centres undefined)
11 | 867 | CC(C)CNC(=O)CCn1c(=O)c2ccccc2n2c(=O)n(Cc3cccc(F)c3)nc12
12 | 657 | CCN(CC)C(=O)Cn1c(C2CC(=O)N(C3CCCC3)C2)nc2ccccc21 (centres undefined)
13 | 805 | CCn1ccc(C(=O)N2CCCn3nc(-c4ccc(C)cc4)cc3C2)n1
14 | 912 | CCN1C(=O)c2ccccc2Oc2ccc(C(=O)NCc3ccccc3)cc21
15 | 570 | COCCCNC(=O)CN1CC2=C(C1=O)C(c1ccccc1Cl)NC(=O)N2C (centres undefined)
16 | 600 | CCC(CN(C)Cc1ccccc1)NS(=O)(=O)c1ccc2[nH]c(=O)ccc2c1 (centres undefined)
17 | 685 | O=C(NCCc1ccccc1)C1CCN(c2cc(N3CCCCC3)ncn2)CC1
18 | 716 | O=C(Nc1ccccc1)N1CCC(n2c(-c3ccco3)nc3cccnc32)C1 (centres undefined)
19 | 763 | Cc1ccc(C(=O)N2CCC3(CC2)NC(=O)c2ccc(F)cc2N3C)cc1
20 | 750 | Cc1ccc(-c2nnc(-c3nc(N4CCCCCC4)c4ccccc4n3)o2)cc1
21 | 1310 | CCCN(C(=O)c1ccccc1)c1nc(-c2ccccc2)cs1
22 | 585 | Cc1ccc(NC(=O)N2CCc3nc[nH]c3C2)c(Cl)c1

Row | RP-LC retention time [s] | SMILES
23 | 636 | Cc1cc(C)n(-c2ccc(=O)n(CCNC(=O)c3cncc(Br)c3)n2)n1
24 | 649 | CCc1nc2c(c(=O)n1CC(=O)NCc1ccc(F)cc1)CN(Cc1ccccc1)CC2
25 | 955 | CCn1c(=O)sc2cc(S(=O)(=O)N3CCC(C(=O)Nc4ccc(F)c(F)c4)CC3)ccc21
26 | 602 | CCNc1cc(N2CCC(CCC(=O)NCC(C)C)CC2)ncn1
27 | 721 | COc1ccccc1CCC(=O)NC(C(=O)Nc1nc2ccccc2[nH]1)C(C)C (centres undefined)
28 | 1060 | CCOC(=O)c1cc(S(=O)(=O)N2CCCC2C(=O)Nc2cccc3c2CCCC3)cn1C (centres undefined)
29 | 870 | COc1ccc(N2CC(c3nc(-c4cccc(OC)c4OC)no3)CC2=O)cc1 (centres undefined)
30 | 874 | CCN1C(=O)c2cccnc2Sc2cc(NC(=O)c3ccc(F)c(F)c3)ccc21
31 | 841 | O=C(c1ccc(-c2ccsc2)nc1)N1CCCCCC1
32 | 834 | COc1ccc(-c2noc(C3CCCN3C(=O)c3ccccc3OC)n2)cc1OC (centres undefined)
33 | 625 | Cc1sc(NC(=O)c2ccccc2)c(CN(C)C)c1C
34 | 719 | CCN(CC)c1nc(-c2cccc(C)c2)nnc1C
35 | 740 | O=C(Nc1cccc(Cl)c1)C1CCCN(C(=O)c2cc(-c3ccccn3)n[nH]2)C1 (centres undefined)
36 | 830 | CC(C)Oc1cccc(NC(=O)C2CCN(S(C)(=O)=O)c3ccccc3O2)c1 (centres undefined)
37 | 711 | COc1ccc(C(=O)N2CCC3(CC2)NC(=O)c2cc(C)ccc2N3C)cc1OC
38 | 800 | Cn1c(-c2ccccc2)c(C(=O)C(=O)N2CCOCC2)c2ccccc21
39 | 635 | CCN1C(=O)c2cccc3c(S(=O)(=O)Nc4cccc(C)n4)ccc1c23
40 | 763 | CCC(C(=O)Nc1ccc2c(c1)OCCO2)n1cnc2nc3c(cc2c1=O)CCCC3 (centres undefined)
41 | 992 | Cc1cccc(-c2nnc(-c3cc(S(=O)(=O)N4CCOCC4)ccc3Cl)o2)c1
42 | 767 | CCOc1ccccc1NC(=O)C1CC(=O)N(c2n[nH]c3ccccc23)C1 (centres undefined)
43 | 946 | CCCN(CC1CCOC1)S(=O)(=O)c1ccccc1C(F)(F)F (centres undefined)
44 | 708 | Cc1cccc(NC(=O)C2CC(=O)N(c3ccc4oc(C)nc4c3)C2)c1 (centres undefined)

Row | RP-LC retention time [s] | SMILES
45 | 857 | Cc1ccc(CNC(=O)C2(C)CCCN(C(=O)Nc3ccc(C)c(F)c3)C2)cc1 (centres undefined)
46 | 939 | COCCN(CCOC)c1nc(S(=O)(=O)c2ccc(C)cc2)c(Cl)s1
47 | 1310 | O=C(NCC1(c2nc(-c3ccccc3)cs2)CCOCC1)c1cccc(-c2noc(C(F)(F)F)n2)c1
48 | 985 | CCc1cccc(C)c1Nc1c(-c2ccc(Cl)cc2)nc2nc(C)cc(C)n12
49 | 1170 | O=S(=O)(NCc1ccccc1F)c1ccccc1-c1nc(-c2cccc(F)c2)no1
50 | 1040 | CCn1nnc2ccc(-c3noc(-c4ccccc4)n3)cc21
51 | 712 | CC(C)(C)NC(=O)N1CCCCC1c1nncn1-c1ccccc1 (centres undefined)
52 | 799 | CCOc1ccc(NC(=O)CN2CCN(Cc3ccc(C)cc3)C(=O)C2=O)cc1
53 | 565 | Cc1cnc(C)n1CC1CCN(C(=O)C2CCC2)C1 (centres undefined)
54 | 767 | CCc1cc(C(=O)NCc2ccc(C)o2)nc2cc(-c3ccco3)nn12
55 | 771 | CCc1cc(=O)n(CC(=O)Nc2cccc(Cl)c2C)c(N2CCOCC2)n1
56 | 864 | CCC(=O)N(CC(=O)N(Cc1ccc2c(c1)OCO2)Cc1sccc1C)CC1CCCO1 (centres undefined)
57 | 797 | Cc1ccccc1CC(=O)N1CCCC1c1c(C)noc1C (centres undefined)
58 | 572 | Cc1cc(OCC(=O)NCc2ccco2)nc(N2CCCCCC2)n1
59 | 633 | Cc1cc(Cl)ccc1-n1ncc2c(N3CCN(C)CC3)ncnc21
60 | 674 | O=C(NCCc1nc2cccnc2n1-c1ccccc1)c1ccsc1
61 | 651 | CCOC(=O)N1CCN(C(=O)c2sc(NS(=O)(=O)c3ccccc3)nc2C)CC1
62 | 1090 | Cc1cccc(-c2noc(Cn3c(=O)n(Cc4ccco4)c(=O)c4ccccc43)n2)c1
63 | 822 | Cc1ccc(C)c(N2CCN(C(=O)C3CCN(S(=O)(=O)c4cn(C)c(C)n4)CC3)CC2)c1
64 | 860 | O=C(CCCc1ccccc1)N1CCN(c2cc(-c3cccs3)[nH]n2)CC1
65 | 892 | Cc1cc(=O)n(CC(=O)Nc2cccc(C)c2C)c(NCCCc2ccccc2)n1
66 | 660 | Cn1cc(CCN2CCN(S(=O)(=O)c3ccc(F)c(Cl)c3)CC2)c2cccnc21

Row | RP-LC retention time [s] | SMILES
67 | 803 | CCCN1C(=O)C(CC(=O)NC2CCCCC2)Sc2ncccc21 (centres undefined)
68 | 602 | O=C(CC1CCN(C(=O)c2ccc3oc(C4CC4)nc3c2)CC1)N1CCN(c2ccccn2)CC1
69 | 743 | COc1ccccc1CNC1=NCCNC12CCN(S(=O)(=O)c1ccc(C)cc1)CC2
70 | 1010 | CC1(C(=O)NCc2ccc(F)cc2)CCN(S(=O)(=O)c2ccc(Br)s2)CC1
71 | 627 | CN1CCN(C(=O)c2cc3c(s2)CCN(C(=O)c2ccc(Cl)cc2)C3)CC1
72 | 646 | CNC(=O)C1CCCN(c2nc3ncn(CC(=O)Nc4ccc(C)cc4C)c(=O)c3s2)C1 (centres undefined)
73 | 652 | COC(=O)c1cnc2nc(C)ccc2c1Nc1ccc2c(c1)OCCO2
74 | 719 | COc1ccc(Cl)cc1S(=O)(=O)NCCn1nc(C)cc1C
75 | 719 | CN(CC1CCOC1)C(=O)c1cc(Cl)ccc1F (centres undefined)
76 | 804 | CCn1cc(CCNS(=O)(=O)Cc2ccccc2Cl)c2cccnc21
77 | 790 | O=C1COc2ccc(S(=O)(=O)N3CCCC3C(=O)N3CCN(c4ccccc4F)CC3)cc2N1 (centres undefined)
78 | 648 | O=C(Cn1ccnc1-c1ccnc(N2CCOCC2)c1)Nc1cccc(Br)c1
79 | 1030 | O=C(Nc1ccc(F)cc1)OCCOc1ccc([N+](=O)[O-])cc1
80 | 584 | CCCn1cnc2ccc(-c3noc(C(C)NC(=O)c4ccco4)n3)cc21 (centres undefined)
81 | 1460 | O=C(Nc1nc(-c2ccccc2)c(-c2ccccc2)s1)c1ccc(Br)s1
82 | 718 | Cc1cc(C)cc(NC(=O)N2CCC(OC3CCN(S(C)(=O)=O)CC3)CC2)c1
83 | 724 | CCN(CC)C(=O)c1ccc(-c2nc3cc(NS(=O)(=O)c4ccc(F)c(F)c4)ccc3n2C)cc1
84 | 675 | COc1ccc(C2C(C(=O)N3CCCCC3)=C(C)NC3=C2C(=O)CC(C)(C)C3)cc1OC (centres undefined)
85 | 752 | Cc1ccn(-c2ccc(N3CCN(C(=O)c4c(F)cccc4Cl)CC3)nn2)n1
86 | 1010 | CCOc1ccccc1NC(=O)N1CCc2nc(-c3ccccc3)ncc2C1
87 | 988 | Cc1ccc(Sc2cc3c(cc2NC(=O)c2ccco2)n(C)c(=O)n3C)cc1

Row | SMILES | RP-LC retention time [s]
88 | O=C(Nc1ccccc1F)N1[C@H]2CC[C@@H]1c1cncnc1C2 | 646
89 | Cc1ccc(-n2cc(C3=CCN(CC(=O)NCc4cccs4)CC3)cn2)cc1C | 735
